{"source": "ChEMBL document CHEMBL1122047", "note": "Several values for one entry are separate records, joined by “and”; a condition that tells them apart may be missing. Equal entries are not always repeated."}
{"molecular_target": "Substance-P receptor (Cavia porcellus) (UniProt P30547)", "sequence (P30547 whole entry)": "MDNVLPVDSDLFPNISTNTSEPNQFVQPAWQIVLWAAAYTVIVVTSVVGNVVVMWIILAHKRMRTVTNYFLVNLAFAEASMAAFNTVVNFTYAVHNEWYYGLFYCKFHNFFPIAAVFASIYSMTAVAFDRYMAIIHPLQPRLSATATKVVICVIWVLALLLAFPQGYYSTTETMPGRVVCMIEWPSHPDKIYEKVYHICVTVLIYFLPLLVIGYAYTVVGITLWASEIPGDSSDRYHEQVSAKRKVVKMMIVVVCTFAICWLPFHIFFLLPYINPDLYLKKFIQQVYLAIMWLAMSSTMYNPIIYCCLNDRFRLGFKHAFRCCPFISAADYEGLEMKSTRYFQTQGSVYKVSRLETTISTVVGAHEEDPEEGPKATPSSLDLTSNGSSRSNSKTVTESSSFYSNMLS", "test": "Relative affinity for Tachykinin receptor 1 compared with [Nle11]-SP"}
{"smiles": "CC(C)C[C@H](NC(=O)CNC(=O)[C@H](Cc1ccccc1)NC(=O)[C@H](Cc1ccccc1)NC(=O)[C@H](CCC(N)=O)NC(=O)[C@H](CCC(N)=O)NC(=O)[C@@H]1CCCN1C(=O)[C@H](CCCCN)NC(=O)[C@@H]1CCCN1C(=O)[C@@H](N)CCCN=C(N)N)C(=O)N[C@@H](Cc1ccc(N)cc1)C(N)=O", "RA": "55% and 69%"}
{"smiles": "CCCC[C@H](NC(=O)[C@H](CC(C)C)NC(=O)CNC(=O)[C@H](Cc1ccc(N=[N+]=[N-])cc1)NC(=O)[C@H](Cc1ccccc1)NC(=O)[C@H](CCC(N)=O)NC(=O)[C@H](CCC(N)=O)NC(=O)[C@@H]1CCCN1C(=O)[C@H](CCCCN)NC(=O)[C@@H]1CCCN1C(=O)[C@@H](N)CCCN=C(N)N)C(N)=O", "RA": "50%"}
{"smiles": "CC(C)C[C@H](NC(=O)CNC(=O)[C@H](Cc1ccccc1)NC(=O)[C@H](Cc1ccccc1)NC(=O)[C@H](CCC(N)=O)NC(=O)[C@H](CCC(N)=O)NC(=O)[C@@H]1CCCN1C(=O)[C@H](CCCCN)NC(=O)[C@@H]1CCCN1C(=O)[C@@H](N)CCCN=C(N)N)C(=O)N[C@@H](Cc1ccc(N=[N+]=[N-])cc1)C(N)=O", "RA": "48% and 50%"}
{"smiles": "CCCC[C@H](NC(=O)[C@H](CC(C)C)NC(=O)CNC(=O)[C@H](Cc1ccccc1)NC(=O)[C@H](Cc1ccc([N+](=O)[O-])cc1)NC(=O)[C@H](CCC(N)=O)NC(=O)[C@H](CCC(N)=O)NC(=O)[C@@H]1CCCN1C(=O)[C@H](CCCCN)NC(=O)[C@@H]1CCCN1C(=O)[C@@H](N)CCCN=C(N)N)C(N)=O", "RA": "10%"}
{"smiles": "CCCC[C@H](NC(=O)[C@H](CC(C)C)NC(=O)CNC(=O)[C@H](Cc1ccccc1)NC(=O)[C@H](Cc1ccccc1)NC(=O)[C@H](CCC(N)=O)NC(=O)[C@H](CCC(N)=O)NC(=O)[C@@H]1CCCN1C(=O)[C@H](CCCCN)NC(=O)[C@@H]1CCCN1C(=O)[C@@H](N)CCCN=C(N)N)C(N)=O", "RA": "100%"}
{"smiles": "CC(C)C[C@H](NC(=O)CNC(=O)[C@H](Cc1ccccc1)NC(=O)[C@H](Cc1ccccc1)NC(=O)[C@H](CCC(N)=O)NC(=O)[C@H](CCC(N)=O)NC(=O)[C@@H]1CCCN1C(=O)[C@H](CCCCN)NC(=O)[C@@H]1CCCN1C(=O)[C@@H](N)CCCN=C(N)N)C(=O)N[C@@H](Cc1ccccc1)C(N)=O", "RA": "100%"}
{"smiles": "CC(C)C[C@H](NC(=O)CNC(=O)[C@H](Cc1ccccc1)NC(=O)[C@H](Cc1ccccc1)NC(=O)[C@H](CCC(N)=O)NC(=O)[C@H](CCC(N)=O)NC(=O)[C@@H]1CCCN1C(=O)[C@H](CCCCN)NC(=O)[C@@H]1CCCN1C(=O)[C@@H](N)CCCN=C(N)N)C(=O)N[C@@H](Cc1ccc([N+]#N)cc1)C(N)=O", "RA": "81% and 72%"}
